Reference: patent US12599582B2, “Pyrrole compounds” (ALIGOS THERAPEUTICS, INC., priority 2019, dated 2026)
pEC50: −log10 of the molar value. Read-outs that look alike come from different tables or passages of the source.

System: HBV
Test: HBV-DNA Antiviral Assay Using HepG2.2.15 Cells (extracellular HBV DNA by qPCR)
Format: cell-based, hepatitis B virus (HBV)
Settings: HBV DNA inhibition, HepG2.2.15 cells, extracellular HBV DNA by qPCR, read-out: EC50
Outline: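 HepG2.2.15 cells were treated on day 1 with 8 concentrations (4-fold dilutions, duplicate; 0.5% DMSO), with compound-containing medium refreshed on day 4, at 37 °C. On day 7, supernatant HBV DNA was measured by qPCR against a plasmid standard curve, with inhibition normalised between DMSO and ETV controls. EC50/EC90 and CC50 (CellTiter-Glo ATP) came from variable-slope fits.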

Cc1c(C(=O)C(=O)NC2(C#CC3(O)CC3)COC2)c(C)n(C)c1C(=O)Nc1ccc(F)c(C#N)c1 [Compound 102, N-(3-cyano-4-fluoro-phenyl)-4-[2-[[3-[2-(1-hydroxycyclopropyl)ethynyl]oxetan-3-yl]amino]-2-oxo-acetyl]-1,3,5-trimethyl-pyrrole-2-carboxamide]
pEC50 (Hepatitis B virus): 8.00 to 9.00

Cc1c(C(=O)C(=O)NC(C)(C)c2nccs2)c(C)n(C)c1C(=O)Nc1ccc(F)c(C(F)(F)F)c1 [Compound 103, N-[4-fluoro-3-(trifluoromethyl)phenyl]-1,3,5-trimethyl-4-[2-[(1-methyl-1-thiazol-2-yl-ethyl)amino]-2-oxo-acetyl]pyrrole-2-carboxamide]
pEC50 (Hepatitis B virus): 8.00 to 9.00

Cc1c(C(=O)C(=O)NC(C)(C)c2c[nH]cn2)c(C)n(C)c1C(=O)Nc1ccc(F)c(C#N)c1 [Compound 104, N-(3-cyano-4-fluoro-phenyl)-4-[2-[[1-(1H-imidazol-4-yl)-1-methyl-ethyl]amino]-2-oxo-acetyl]-1,3,5-trimethyl-pyrrole-2-carboxamide]
pEC50 (Hepatitis B virus): 8.00 to 9.00

C#CC1(N(COC(=O)[C@@H](N)C(C)C)C(=O)C(=O)c2c(C)c(C(=O)Nc3ccc(F)c(C#N)c3)n(C)c2C)COC1 [Compound 105, [[2-[5-[(3-cyano-4-fluoro-phenyl)carbamoyl]-1,2,4-trimethyl-pyrrol-3-yl]-2-oxo-acetyl]-(3-ethynyloxetan-3-yl)amino]methyl-(2S)-2-amino-3-methyl-butanoate]
pEC50 (Hepatitis B virus): 8.00 to 9.00

Cc1c(C(=O)C(=O)NC(C)(C)c2c[nH]cn2)c(C)n(C)c1C(=O)Nc1ccc(F)c(C(F)(F)F)c1 [Compound 106, N-[4-fluoro-3-(trifluoromethyl)phenyl]-4-[2-[[1-(1H-imidazol-4-yl)-1-methyl-ethyl]amino]-2-oxo-acetyl]-1,3,5-trimethyl-pyrrole-2-carboxamide]
pEC50 (Hepatitis B virus): 8.00 to 9.00

C#CC1(NC(=O)C(=O)c2c(C)c(C(=O)Nc3ccc(F)c(C#N)c3)n(C)c2C)CCOCC1 [Compound 107, N-(3-cyano-4-fluoro-phenyl)-4-[2-[(4-ethynyltetrahydropyran-4-yl)amino]-2-oxo-acetyl]-1,3,5-trimethyl-pyrrole-2-carboxamide]
pEC50 (Hepatitis B virus): 8.00 to 9.00

C#CC1(NC(=O)C(=O)c2c(C)c(C(=O)Nc3ccc(F)c(C#N)c3)n(C)c2C)CCS(=O)(=O)CC1 [Compound 108, N-(3-cyano-4-fluoro-phenyl)-4-[2-[(4-ethynyl-1,1-dioxo-thian-4-y1)amino]-2-oxo-acetyl]-1,3,5-trimethyl-pyrrole-2-carboxamide]
pEC50 (Hepatitis B virus): 8.00 to 9.00

C#CC1(NC(=O)C(=O)c2c(C)c(C(=O)Nc3ccc(F)c(C#N)c3)n(C)c2C)CCCC1 [Compound 109, N-(3-cyano-4-fluoro-phenyl)-4-[2-[(1-ethynylcyclopentyl)amino]-2-oxo-acetyl]-1,3,5-trimethyl-pyrrole-2-carboxamide]
pEC50 (Hepatitis B virus): 8.00 to 9.00

Cc1c(C(=O)C(=O)NC(C)(C)c2ncc[nH]2)c(C)n(C)c1C(=O)Nc1ccc(F)c(C#N)c1 [Compound 131, N-(3-cyano-4-fluoro-phenyl)-4-[2-[[1-(1H-imidazol-2-yl)-1-methyl-ethyl]amino]-2-oxo-acetyl]-1,3,5-trimethyl-pyrrole-2-carboxamide]
pEC50 (Hepatitis B virus): 8.00 to 9.00

Cc1c(C(=O)C(=O)NC(C)(C)c2ncc[nH]2)c(C)n(C)c1C(=O)Nc1ccc(F)c(C(F)(F)F)c1 [Compound 132, N-[4-fluoro-3-(trifluoromethyl)phenyl]-4-[2-[[1-(1H-imidazol-2-yl)-1-methyl-ethyl]amino]-2-oxo-acetyl]-1,3,5-trimethyl-pyrrole-2-carboxamide]
pEC50 (Hepatitis B virus): 8.00 to 9.00

C#CC1(NC(=O)C(=O)c2c(C)c(C(=O)Nc3ccc(Cl)c(Br)c3)n(C)c2C)CC(F)(F)C1 [Compound 133, N-(3-bromo-4-chloro-phenyl)-4-[2-[(1-ethynyl-3,3-difluoro-cyclobutyl)amino]-2-oxo-acetyl]-1,3,5-trimethyl-pyrrole-2-carboxamide]
pEC50 (Hepatitis B virus): 8.00 to 9.00

C#CC1(NC(=O)C(=O)c2c(C)c(C(=O)Nc3ccc(Br)c(Cl)c3)n(C)c2C)CC(F)(F)C1 [Compound 134, N-(4-bromo-3-chloro-phenyl)-4-[2-[(1-ethynyl-3,3-difluoro-cyclobutyl)amino]-2-oxo-acetyl]-1,3,5-trimethyl-pyrrole-2-carboxamide]
pEC50 (Hepatitis B virus): 8.00 to 9.00

Cc1c(C(=O)C(=O)NC(C)(C)c2cnn(C3CC3)c2)c(C)n(C)c1C(=O)Nc1ccc(F)c(C#N)c1 [Compound 135, N-(3-cyano-4-fluoro-phenyl)-4-[2-[[1-(1-cyclopropylpyrazol-4-yl)-1-methyl-ethyl]amino]-2-oxo-acetyl]-1,3,5-trimethyl-pyrrole-2-carboxamide]
pEC50 (Hepatitis B virus): 8.00 to 9.00

Cc1c(C(=O)C(=O)NC(C)(C)c2cnn(C3CC3)c2)c(C)n(C)c1C(=O)Nc1ccc(F)c(C(F)(F)F)c1 [Compound 136, 4-[2-[[1-(1-cyclopropylpyrazol-4-yl)-1-methyl-ethyl]amino]-2-oxo-acetyl]-N-[4-fluoro-3-(trifluoromethyl)phenyl]-1,3,5-trimethyl-pyrrole-2-carboxamide]
pEC50 (Hepatitis B virus): 8.00 to 9.00

Cc1c(C(=O)C(=O)NC(C)(C)c2ccnn2C)c(C)n(C)c1C(=O)Nc1ccc(F)c(C#N)c1 [Compound 137, N-(3-cyano-4-fluoro-phenyl)-1,3,5-trimethyl-4-[2-[[1-methyl-1-(2-methylpyrazol-3-yl)ethyl]amino]-2-oxo-acetyl]pyrrole-2-carboxamide]
pEC50 (Hepatitis B virus): 8.00 to 9.00

Cc1c(C(=O)C(=O)NC(C)(C)c2ccnn2C)c(C)n(C)c1C(=O)Nc1ccc(F)c(C(F)(F)F)c1 [Compound 138, N-[4-fluoro-3-(trifluoromethyl)phenyl]-1,3,5-trimethyl-4-[2-[[1-methyl-1-(2-methylpyrazol-3-yl)ethyl]amino]-2-oxo-acetyl]pyrrole-2-carboxamide]
pEC50 (Hepatitis B virus): 8.00 to 9.00

Cc1c(C(=O)C(=O)NC(C)(C)c2nnco2)c(C)n(C)c1C(=O)Nc1ccc(F)c(C#N)c1 [Compound 139, N-(3-cyano-4-fluoro-phenyl)-1,3,5-trimethyl-4-[2-[[1-methyl-1-(1,3,4-oxadiazol-2-yl)ethyl]amino]-2-oxo-acetyl]pyrrole-2-carboxamide]
pEC50 (Hepatitis B virus): 8.00 to 9.00

Cc1c(C(=O)C(=O)NC(C)(C)c2cscn2)c(C)n(C)c1C(=O)Nc1ccc(F)c(C#N)c1 [Compound 140, N-(3-cyano-4-fluoro-phenyl)-1,3,5-trimethyl-4-[2-[(1-methyl-1-thiazol-4-yl-ethyl)amino]-2-oxo-acetyl]pyrrole-2-carboxamide]
pEC50 (Hepatitis B virus): 8.00 to 9.00

Cc1c(C(=O)C(=O)NC(C)(C)c2cscn2)c(C)n(C)c1C(=O)Nc1ccc(F)c(C(F)(F)F)c1 [Compound 141, N-[4-fluoro-3-(trifluoromethyl)phenyl]-1,3,5-trimethyl-4-[2-[(1-methyl-1-thiazol-4-yl-ethyl)amino]-2-oxo-acetyl]pyrrole-2-carboxamide]
pEC50 (Hepatitis B virus): 8.00 to 9.00

Cc1c(C(=O)C(=O)NC2(c3cnn(C4CC4)n3)CC(F)(F)C2)c(C)n(C)c1C(=O)Nc1ccc(F)c(C(F)(F)F)c1 [Compound 142, 4-[2-[[1-(2-cyclopropyltriazol-4-yl)-3,3-difluoro-cyclobutyl]amino]-2-oxo-acetyl]-N-[4-fluoro-3-(trifluoromethyl)phenyl]-1,3,5-trimethyl-pyrrole-2-carboxamide]
pEC50: 8.00 to 9.00

Cc1c(C(=O)C(=O)NC(C)(C)c2nnco2)c(C)n(C)c1C(=O)Nc1ccc(F)c(C(F)(F)F)c1 [Compound 143, N-[4-fluoro-3-(trifluoromethyl)phenyl]-1,3,5-trimethyl-4-[2-[[1-methyl-1-(1,3,4-oxadiazol-2-yl)ethyl]amino]-2-oxo-acetyl]pyrrole-2-carboxamide]
pEC50 (Hepatitis B virus): 8.00 to 9.00

Cc1c(C(=O)C(=O)NC(C)(C)c2cncnc2)c(C)n(C)c1C(=O)Nc1ccc(F)c(C#N)c1 [Compound 144, N-(3-cyano-4-fluoro-phenyl)-1,3,5-trimethyl-4-[2-[(1-methyl-1-pyrimidin-5-yl-ethyl)amino]-2-oxo-acetyl]pyrrole-2-carboxamide]
pEC50 (Hepatitis B virus): 8.00 to 9.00

Cc1c(C(=O)C(=O)NC(C)(C)c2ccc(F)cn2)c(C)n(C)c1C(=O)Nc1ccc(F)c(C#N)c1 [Compound 145, N-(3-cyano-4-fluoro-phenyl)-4-[2-[[1-(5-fluoro-2-pyridyl)-1-methyl-ethyl]amino]-2-oxo-acetyl]-1,3,5-trimethyl-pyrrole-2-carboxamide]
pEC50 (Hepatitis B virus): 8.00 to 9.00

Cc1c(C(=O)C(=O)NC2(c3cn(C4CC4)nn3)CC(F)(F)C2)c(C)n(C)c1C(=O)Nc1ccc(F)c(C(F)(F)F)c1 [Compound 146, 4-[2-[[1-(1-cyclopropyltriazol-4-yl)-3,3-difluoro-cyclobutyl]amino]-2-oxo-acetyl]-N-[4-fluoro-3-(trifluoromethyl)phenyl]-1,3,5-trimethyl-pyrrole-2-carboxamide]
pEC50: 8.00 to 9.00

Cc1c(C(=O)C(=O)NC(C)(C)c2ccc(F)cn2)c(C)n(C)c1C(=O)Nc1ccc(F)c(C(F)(F)F)c1 [Compound 147, 4-[2-[[l-(5-fluoro-2-pyridyl)-1-methyl-ethyl]amino]-2-oxo-acetyl]-N-[4-fluoro-3-(trifluoromethyl)phenyl]-1,3,5-trimethyl-pyrrole-2-carboxamide]
pEC50: 8.00 to 9.00

Cc1c(C(=O)C(=O)NC(C)(C)c2cncnc2)c(C)n(C)c1C(=O)Nc1ccc(F)c(C(F)(F)F)c1 [Compound 148, N-[4-fluoro-3-(trifluoromethyl)phenyl]-1,3,5-trimethyl-4-[2-[(1-methyl-1-pyrimidin-5-yl-ethyl)amino]-2-oxo-acetyl]pyrrole-2-carboxamide]
pEC50 (Hepatitis B virus): 8.00 to 9.00

Cc1c(C(=O)C(=O)NC(C)(C)c2cn(C)cn2)c(C)n(C)c1C(=O)Nc1ccc(F)c(C(F)(F)F)c1 [Compound 149, N-[4-fluoro-3-(trifluoromethyl)phenyl]-1,3,5-trimethyl-4-[2-[[1-methyl-1-(1-methylimidazol-4-yl)ethyl]amino]-2-oxo-acetyl]pyrrole-2-carboxamide]
pEC50 (Hepatitis B virus): 6.00 to 7.00
